According to patent US7999069B2, “EphB receptor-binding peptides” (Sanford-Burnham Medical Research Institute, priority 2005, dated 2011):
pIC50: −log10 of the molar value. Values joined by “and” are separate entries in the source; they are usually repeats but may differ in a detail not shown here. Equal values may be shown once. Read-outs that look alike come from different tables or passages of the source. No end group written: not given here.

Legend:
EphB4 [1] = molecular target: T1, EphB4 (Homo sapiens, UniProt P54760); test: Inhibition of ephrin-B2 AP binding to immobilized EphB4 ectodomain
T1 construct: panned on the ectodomains of EphB1, EphB2, or EphB4 fused to human Fc
T1 sequence (P54760 16-539 limits assumed): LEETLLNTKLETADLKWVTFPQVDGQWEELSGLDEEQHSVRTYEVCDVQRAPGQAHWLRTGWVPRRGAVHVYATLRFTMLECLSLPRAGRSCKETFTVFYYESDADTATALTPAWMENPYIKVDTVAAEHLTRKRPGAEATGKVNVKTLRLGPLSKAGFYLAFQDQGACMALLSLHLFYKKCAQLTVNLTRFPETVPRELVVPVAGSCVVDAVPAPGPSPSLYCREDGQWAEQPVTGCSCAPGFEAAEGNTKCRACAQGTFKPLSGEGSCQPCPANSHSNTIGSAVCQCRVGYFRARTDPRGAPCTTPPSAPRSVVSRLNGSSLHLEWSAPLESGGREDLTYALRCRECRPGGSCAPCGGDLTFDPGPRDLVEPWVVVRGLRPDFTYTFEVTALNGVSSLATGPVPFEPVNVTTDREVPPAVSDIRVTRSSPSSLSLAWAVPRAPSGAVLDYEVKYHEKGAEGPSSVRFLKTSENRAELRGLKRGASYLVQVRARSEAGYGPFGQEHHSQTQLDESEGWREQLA
Procedure: Peptides that bind to the same receptor region as the ephrins would be expected to inhibit Eph receptor-ephrin association, if they interact with sufficient affinity. A number of synthetic peptides were tested for their ability to inhibit binding of alkaline phosphatase-tagged ephrin-B2 (ephrin-B2-AP) to EphB receptors (FIG. 3). Most of the peptides were synthesized with a biotin tag and immobilized on streptavidin plates to verify their ability to capture the EphB ectodomains used for their isolation.
Ephrin-B2 AP binding to the indicated immobilized EphB receptor ectodomains was measured in the presence of the indicated peptides and detected by measuring alkaline phosphatase activity. […]. […] Wells coated with the different EphB ectodomains were incubated with ephrin-B2 AP and 50 μM of the indicated peptides. Ephrin-B2 AP binding in the presence of peptide was normalized to binding in the absence of peptide. All peptides were biotinylated except for FSPQ and EWYM. […] Therefore, IPWT was not used for further experiments. The EWYM, TWO, and FSPQ peptides were not synthesized with a biotin tag and therefore were tested directly for inhibition of ephrin-B2 binding. The EWLS, SNEW, and TNYL peptides were selective because they antagonized ephrin binding to only one EphB receptor (FIGS. 3B, D, and F).
The GP motif aligns with the GP motif of TNYL and the RAW motif aligns precisely next to the last amino acid of TNYL. […] For competition assays between peptides and ephrin-B2 alkaline phosphatase fusion protein (ephrin-B2 AP), the concentration of ephrin-B2 AP used was adjusted to obtain similar signals with different EphB receptors (0.135-1.45 OD min^−1ml^−1). Ephrin-B2 AP was co-incubated for 1 hr with different peptide concentrations in Ni-NTA wells coated with 1 μg/ml Eph receptor Fc. After several washes, the amount of ephrin-B2-AP bound was quantified using p-nitrophenylphosphate as a substrate. Alkaline phosphatase activity from wells without EphB Fc was subtracted as background. […] […]. In these experiments, the two peptides are not biotinylated. […] Ephrin-B2-AP binding in the presence of peptide was normalized to binding in the absence of peptide in (A) and (B). […] Endogenous EphB4 was immunoprecipitated from MCF7 breast cancer cells after stimulation with ephrin-B2 Fc, or Fc as a control, and probed by immunoblotting with anti-phosphotyrosine antibodies (PTyr). […] The filters were reprobed with EphB4 antibodies to confirm equal amounts of immunoprecipitated receptor.

EphB4 [2] = molecular target: T2, EphB4 (Homo sapiens, UniProt P54760); test: Peptide pull-down of EphB4 from MCF7 or transfected 293T cells; format: binding
T2 construct: MCF-7 human breast cancer cells, which endogenously express EphB4; endogenous in cells; host or cells: MCF7
T2 sequence (P54760 16-987): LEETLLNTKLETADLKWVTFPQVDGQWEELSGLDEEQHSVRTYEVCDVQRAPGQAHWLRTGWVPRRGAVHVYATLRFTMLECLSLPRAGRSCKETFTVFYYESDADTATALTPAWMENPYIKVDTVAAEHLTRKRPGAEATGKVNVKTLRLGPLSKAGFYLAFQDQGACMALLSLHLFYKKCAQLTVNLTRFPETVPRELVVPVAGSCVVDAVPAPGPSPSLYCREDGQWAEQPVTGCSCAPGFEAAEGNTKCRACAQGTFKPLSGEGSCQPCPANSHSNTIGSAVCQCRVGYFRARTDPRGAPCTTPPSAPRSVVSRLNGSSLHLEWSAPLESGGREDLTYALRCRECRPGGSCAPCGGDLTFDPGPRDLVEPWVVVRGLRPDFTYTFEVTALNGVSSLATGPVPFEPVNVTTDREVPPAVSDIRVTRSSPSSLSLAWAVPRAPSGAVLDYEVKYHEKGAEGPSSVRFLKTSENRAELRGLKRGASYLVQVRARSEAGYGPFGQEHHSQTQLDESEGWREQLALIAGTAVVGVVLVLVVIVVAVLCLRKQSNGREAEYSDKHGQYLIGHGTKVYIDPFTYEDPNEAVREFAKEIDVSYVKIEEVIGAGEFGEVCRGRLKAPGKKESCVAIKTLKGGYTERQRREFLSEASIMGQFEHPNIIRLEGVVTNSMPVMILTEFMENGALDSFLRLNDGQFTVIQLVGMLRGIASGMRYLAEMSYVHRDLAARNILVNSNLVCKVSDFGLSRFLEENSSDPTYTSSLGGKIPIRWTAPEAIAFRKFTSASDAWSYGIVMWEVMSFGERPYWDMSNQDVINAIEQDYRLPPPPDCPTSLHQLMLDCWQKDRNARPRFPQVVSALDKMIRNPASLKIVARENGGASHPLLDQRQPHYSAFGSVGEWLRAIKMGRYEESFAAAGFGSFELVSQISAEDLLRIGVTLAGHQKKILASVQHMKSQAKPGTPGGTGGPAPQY
Procedure: The ability of the peptides to bind in a stable manner, which is important for both targeting and competitive inhibition, was tested in pull-down experiments. For peptide pull-down experiments, cells in 60 cm plates at 70% confluency or adult mouse brain tissue were solubilized in pull-down buffer (50 mM HEPES pH 7.5, 150 mM NaCl, 10% glycerol, 1% Triton-X100, 5 mM KCl and 1 mM EDTA). Three μg of biotinylated peptide were incubated for 45-90 min with 5 μl streptavidin agarose beads (Sigma), unbound peptide was washed away, and the beads were incubated with the cell lysates for 45-90 min. Proteins bound to the beads were separated by SDS-polyacrylamide gel electrophoresis and probed by immunoblotting with EphB1, EphB2, or EphB4 antibodies. The EphB1 antibody (Santa Cruz) was detected with a secondary anti-goat IgG peroxidase-conjugated antibody (BioRad Laboratories). The EphB2 and EphB4 antibodies were affinity-purified polyclonal antibodies to GST fusion proteins containing approximately 100 amino acids from the carboxy-terminal tails of the EphB2 or EphB4 receptors (Noren, N. K. et al. 2004 PNAS USA 101:5583-5588; Holash, J. A. & Pasquale, E. B. 1995 Devel Biol 172:683-693) and were detected with a secondary anti-rabbit IgG peroxidase-conjugated antibody (Amersham Biosciences).
Endogenous EphB receptors were isolated from lysates of mouse brain or cultured cells using the EWLS, SNEW, and TNYL peptides immobilized on streptavidin beads (FIGS. 5B, F, G and H). […] RTVA was used as a control peptide for the EphB4 pull downs. The NPVI peptide could isolate EphB4 from transfected cells but not endogenous EphB4 from MCF7 cells, which is present at lower levels (FIGS. 5B, F, G and H). […] EphB receptors were not detected bound to the beads coated with the other peptides.

Eph receptor Fc proteins = test: Immobilized biotinylated peptides capturing Eph receptor Fc proteins on streptavidin plates; format: binding; conditions: for Eph receptor binding selectivity of immobilized biotinylated peptide: A- and B-class Eph receptor Fc proteins
Procedure: To measure the specificity of peptide binding to Eph receptors, biotinylated peptides were immobilized on streptavidin-coated plates at 10 μM (Pierce Biotechnology, Rockford, Ill.) and incubated for 1 hr with different Eph ectodomain Fc fusion proteins at 2.5 μg/ml in binding buffer. Bound receptor was detected using an anti-Fc antibody coupled to alkaline phosphatase (Promega) with p-nitrophenylphosphate as substrate (Pierce). The background that was subtracted from the measurements was determined by omitting the Eph ectodomain.
Biotinylated peptides were immobilized on streptavidin-coated plates and used to capture Eph receptor Fc proteins. Bound receptor was detected using anti-Fc antibody coupled to alkaline phosphatase and was normalized to the value in the well with highest receptor binding.

EphB receptors = test: Ephrin-B2 AP binding to different EphB ectodomains in presence of peptide (selectivity); conditions: 10 μM peptide
Procedure: Ephrin-B2 AP binding to the indicated immobilized EphB receptor ectodomains was measured in the presence of the indicated peptides and detected by measuring alkaline phosphatase activity. […] Wells coated with the different EphB ectodomains were incubated with ephrin-B2 AP and 50 μM of the indicated peptides. Ephrin-B2 AP binding in the presence of peptide was normalized to binding in the absence of peptide. All peptides were biotinylated except for FSPQ and EWYM. […] The EWYM, TWO, and FSPQ peptides were not synthesized with a biotin tag and therefore were tested directly for inhibition of ephrin-B2 binding.
Ephrin-B2 AP was co-incubated for 1 hr with different peptide concentrations in Ni-NTA wells coated with 1 μg/ml Eph receptor Fc. After several washes, the amount of ephrin-B2-AP bound was quantified using p-nitrophenylphosphate as a substrate. Alkaline phosphatase activity from wells without EphB Fc was subtracted as background. […] In these experiments, the two peptides are not biotinylated. […] Ephrin-B2-AP binding in the presence of peptide was normalized to binding in the absence of peptide in (A) and (B).

EphB4 [3] = molecular target: T2, EphB4; test: Ephrin-B2 Fc-induced EphB4 tyrosine phosphorylation in breast cancer cells; format: cell-based; conditions: MCF7 cells
Procedure: Preincubation of COS cells with the SNEW peptide in a concentration-dependent manner blocked the ability of ephrin-B1 Fc to induce tyrosine phosphorylation, and therefore activation, of endogenous EphB2 (FIG. 4A). EphB2 was immunoprecipitated from COS cells after stimulation with ephrin-B1 Fc, or Fc as a control, in the presence of the indicated concentrations of SNEW peptide and control RTVA peptide. For EphB2 immunoprecipitations, COS cells were serum-starved in DME high glucose for 3 hrs prior to stimulation with 1 μg/ml ephrin-B1 Fc or Fc protein in the presence or absence of EphB2-binding peptides or a control peptide. […] After ephrin stimulation, the cells were lysed in modified RIPA buffer (150 mM NaCl, 1 mM EDTA, 1% Triton X-100, 1% Na deoxycholate, 0.1% SDS, 20 mM Tris pH 8.0) with protease inhibitors and 1 mM sodium orthovanadate. Cell lysates were used for immunoprecipitation with either 5 μg EphB2 antibodies or 10 μg EphB4 antibodies. […]
The GP motif aligns with the GP motif of TNYL and the RAW motif aligns precisely next to the last amino acid of TNYL. […] After several washes, the amount of ephrin-B2-AP bound was quantified using p-nitrophenylphosphate as a substrate. […]

[4] = Peptide IC50: concentration of peptide required to inhibit ephrin-B2 AP binding by 50%, biotinylated synthetic peptides except EWYM and FSPQ

Compound: CC[C@H](C)[C@H](NC(=O)[C@@H]1CCCN1C(=O)CNC(=O)[C@H](CC(N)=O)NC(=O)[C@@H]1CCCN1C(=O)[C@H](CO)NC(=O)[C@H](Cc1ccccc1)NC(=O)[C@H](CC(C)C)NC(=O)[C@H](Cc1ccc(O)cc1)NC(=O)[C@H](CC(N)=O)NC(=O)[C@@H](N)[C@@H](C)O)C(=O)N[C@@H](C)C(=O)O [SEQ ID NO 24]
- pIC50 (EphB4 [1]; [4]): ~4.30
- pIC50 (EphB4 [1]; non-biotinylated peptide, read-out: IC50 for inhibition of ephrin-B2 AP binding): 3.82 and ~3.82

Compound: DHNHNLYNPWRL [SEQ ID NO 21]
- pIC50 (EphB4 [1]; [4]): ~3.70

Compound: NPVIGPIQRAWT [SEQ ID NO 27]
- Pull-down of endogenous EphB4 (EphB4 [2]; MCF7 breast cancer cell line): did not detectably bind
- Pull-down of transfected EphB4 (EphB4 [2]; transfected 293T human embryonic kidney cells): bound the more highly expressed EphB4

Compound: SEQ ID NO 10: 12-mer from EphB2 panning; printed DHWRI[image]PFSLSS (DHWRILPFSLSS)
- Eph receptor binding selectivity of immobilized biotinylated peptide (Eph receptor Fc proteins): less specific

Compound: SEQ ID NO 14: 12-mer from EphB2 panning; printed SHW[image]ISPYSLLS (SHWPISPYSLLS)
- Eph receptor binding selectivity of immobilized biotinylated peptide (Eph receptor Fc proteins): less specific

Compound: SEQ ID NO 34: 12-mer from EphB4 panning; printed IPWTQ[image]MAMSPM (IPWTQHMAMSPM)
- Capture of the EphB ectodomain used for isolation by immobilized biotinylated peptide (Eph receptor Fc proteins; EphB4): failed to bind

Compound: TNYLFSPNGPIARAW [TNYL-RAW]
- pIC50 (EphB4 [1]; non-biotinylated peptide or dimeric ephrin-B2 Fc, read-out: IC50 for inhibition of ephrin-B2 AP binding to EphB4): ~7.82
- Selectivity of antagonism of ephrin-B2 AP binding across EphB ectodomains (EphB receptors): inhibits binding of ephrin-B2 AP to the immobilized EphB4 ectodomain but not other EphB ectodomains
- Inhibition of basal EphB4 tyrosine phosphorylation (EphB4 [3]): inhibited
- Inhibition of ephrin-B2 Fc-induced EphB4 tyrosine phosphorylation (EphB4 [3]; concentration-dependent): inhibited in a concentration-dependent manner EphB4 tyrosine phosphorylation
